In patent US8361968B2 (Takeda Pharmaceutical Company Limited, priority 2002, dated 2013):
Square brackets hold non-standard residues; d marks the D form. Peptide text beside a SMILES is read from it. * marks the point of attachment. 2Nal = N[C@@H](Cc1ccc2ccccc2c1)C(=O)O; Arg(Me) = CNC(=N)NCCC[C@H](N)C(=O)O; Fmoc = O=C(OCC1c2ccccc2-c2ccccc21)*; 2Pal = N[C@@H](Cc1ccccn1)C(=O)O; 3Pal = N[C@@H](Cc1cccnc1)C(=O)O; azaGly = NNC(=O)O

molecular target: hOT7T175 (Homo sapiens, UniProt Q969F8, L364H); assay: hOT7T175 receptor binding activity: binding inhibition of Cy-5-labeled metastin (40-54) on hOT7T175-expressed CHO cells; parameters: expressed in transfected cells; host or cells: CHO cells
Sequence (Q969F8 whole entry L364H): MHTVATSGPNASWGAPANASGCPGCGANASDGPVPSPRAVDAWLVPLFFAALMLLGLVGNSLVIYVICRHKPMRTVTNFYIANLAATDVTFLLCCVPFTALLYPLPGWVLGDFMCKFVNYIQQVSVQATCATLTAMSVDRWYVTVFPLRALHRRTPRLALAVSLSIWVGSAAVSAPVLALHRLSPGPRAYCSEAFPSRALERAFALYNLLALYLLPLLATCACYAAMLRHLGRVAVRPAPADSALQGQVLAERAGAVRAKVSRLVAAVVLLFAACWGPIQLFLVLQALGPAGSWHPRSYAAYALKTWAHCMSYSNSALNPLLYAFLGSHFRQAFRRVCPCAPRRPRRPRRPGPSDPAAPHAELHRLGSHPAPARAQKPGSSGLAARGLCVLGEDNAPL
Protocol: Assay for hOT7T175 Receptor Binding Activity
h0T7T175-Expressed CHO cells were cultured in MEM-cc medium (nucleic acid-free) containing 10% dialyzed serum. The medium was removed and the adherent cells were washed with PBS. Then, PBS containing 5 mM EDTA was added and the cells were scraped from a flask with a cell scraper. […] To each well of a 96-Well Black Clear Bottom Plate (Applied Biosystems, Inc.), 10 μL of assay buffer containing 1% dimethylsulfoxide was added to examine total binding, 10 μL of 10 μM non-labeled peptide (having the same amino acid sequence as that of the labeled one) solution diluted with assay buffer to examine non-specific binding, and 10 μL of a test compound diluted with assay buffer to examine the binding inhibition activity of the test compound, respectively. Furthermore, 90 μL each of the cell suspension was dispensed to each well. […] The specific binding is a value obtained by subtracting the non-specific binding from the total binding.

Structure (SMILES)	IC50 [nM]
CNC(N)=NCCC[C@H](NC(=O)[C@H](CC(C)C)NC(=O)NNC(=O)[C@H](Cc1ccccc1)NC(=O)[C@H](CO)NC(=O)[C@H](CC(N)=O)NC(=O)[C@@H](NC(=O)[C@H](CC(N)=O)NC(=O)[C@H](N)Cc1ccc(O)cc1)[C@@H](C)O)C(=O)N[C@@H](Cc1ccccc1)C(N)=O [Compound No. 221, D-Tyr-Asn-Thr-Asn-Ser-Phe-AzaGly-Leu-Arg(Me)-Phe-NH2] (H-[dY]NTNSF[azaGly]L[Arg(Me)]F-NH2)	95
CC(C)C[C@H](NC(=O)CNC(=O)[C@H](Cc1ccccc1)NC(=O)[C@H](CO)NC(=O)[C@H](CC(N)=O)NC(=O)[C@H](Cc1c[nH]c2ccccc12)NC(=O)[C@H](CC(N)=O)NC(=O)[C@@H](N)Cc1ccc(O)cc1)C(=O)N[C@@H](CCCNC(=N)N(C)C)C(=O)N[C@@H](Cc1ccccc1)C(N)=O [Compound No. 83]	25
CC[C@H](C)[C@H](NC(=O)[C@H](N)Cc1ccc(O)cc1)C(=O)N[C@@H](CC(N)=O)C(=O)N[C@@H](CO)C(=O)N[C@@H](Cc1ccccc1)C(=O)NNC(=O)N[C@@H](CC(C)C)C(=O)N[C@@H](CCCNC(=N)NC)C(=O)N[C@@H](Cc1ccccc1)C(N)=O [Compound No. 240, D-Tyr-Ile-Asn-Ser-Phe-AzaGly-Leu-Arg(Me)-Phe-NH2] (H-[dY]INSF[azaGly]L[Arg(Me)]F-NH2)	17
CNC(N)=NCCC[C@H](NC(=O)[C@H](CC(C)C)NC(=O)NNC(=O)[C@H](Cc1ccccc1)NC(=O)[C@H](CO)NC(=O)[C@H](CC(N)=O)NC(=O)[C@H](CO)NC(=O)[C@H](N)Cc1ccc(O)cc1)C(=O)N[C@@H](Cc1ccccc1)C(N)=O [Compound No. 239, D-Tyr-Ser-Asn-Ser-Phe-AzaGly-Leu-Arg(Me)-Phe-NH2] (H-[dY]SNSF[azaGly]L[Arg(Me)]F-NH2)	120
CNC(N)=NCCC[C@H](NC(=O)[C@H](CC(C)C)NC(=O)NNC(=O)[C@H](Cc1ccccc1)NC(=O)[C@H](CO)NC(=O)[C@H](CC(N)=O)NC(=O)[C@H](Cc1ccccc1)NC(=O)[C@@H](CC(N)=O)NC(=O)[C@H](N)Cc1ccc(O)cc1)C(=O)N[C@@H](Cc1ccccc1)C(N)=O [Compound No. 257, D-Tyr-D-Asn-Phe-Asn-Ser-Phe-AzaGly-Leu-Arg(Me)-Phe-NH2] (H-[dY][dN]FNSF[azaGly]L[Arg(Me)]F-NH2)	40
CNC(N)=NCCC[C@H](NC(=O)[C@H](CC(C)C)NC(=O)NNC(=O)[C@H](Cc1ccccc1)NC(=O)[C@H](CO)NC(=O)[C@H](CC(N)=O)NC(=O)[C@H](Cc1ccc2ccccc2c1)NC(=O)[C@H](N)Cc1ccc(O)cc1)C(=O)N[C@@H](Cc1ccccc1)C(N)=O [Compound No. 255, D-Tyr-Nal(2)-Asn-Ser-Phe-AzaGly-Leu-Arg(Me)-Phe-NH2] (H-[dY][2Nal]NSF[azaGly]L[Arg(Me)]F-NH2)	33
CC(C)C[C@H](NC(=O)CNC(=O)[C@H](Cc1ccccc1)NC(=O)[C@H](CO)NC(=O)[C@H](CC(N)=O)NC(=O)[C@H](C)NC(=O)[C@H](CC(N)=O)NC(=O)[C@@H](N)Cc1ccc(O)cc1)C(=O)N[C@@H](CCCNC(=N)N)C(=O)N[C@@H](Cc1ccccc1)C(N)=O [Compound No. 67] (H-YNANSFGLRF-NH2)	27
CC(C)C[C@H](NC(=O)CNC(=O)[C@H](Cc1ccccc1)NC(=O)[C@H](CO)NC(=O)[C@H](CC(N)=O)NC(=O)[C@H](Cc1c[nH]c2ccccc12)NC(=O)[C@H](CC(C)C)NC(=O)[C@@H](N)Cc1ccc(O)cc1)C(=O)N[C@@H](CCCNC(=N)N)C(=O)N[C@@H](Cc1ccccc1)C(N)=O [Compound No. 59] (H-YLWNSFGLRF-NH2)	340
CC(C)[C@H](NC(=O)CNC(=O)[C@H](Cc1ccccc1)NC(=O)[C@H](CO)NC(=O)[C@H](CC(N)=O)NC(=O)[C@H](Cc1c[nH]c2ccccc12)NC(=O)[C@H](CC(N)=O)NC(=O)[C@@H](N)Cc1ccc(O)cc1)C(=O)N[C@@H](CCCNC(=N)N)C(=O)N[C@@H](Cc1ccccc1)C(N)=O [Compound No. 107] (H-YNWNSFGVRF-NH2)	120
CC(C)C[C@H](NC(=O)CNC(=O)[C@H](Cc1ccccc1)NC(=O)[C@H](CO)NC(=O)[C@H](CC(N)=O)NC(=O)[C@H](Cc1c[nH]c2ccccc12)NC(=O)[C@H](CC(N)=O)NC(=O)[C@@H](N)Cc1ccc(O)cc1)C(=O)N[C@@H](CCCCN)C(=O)N[C@@H](Cc1ccccc1)C(N)=O [Compound No. 44] (H-YNWNSFGLKF-NH2)	190
CNC(=N)NCCC[C@H](NC(=O)[C@H](CC(C)C)NC(=O)NNC(=O)[C@H](Cc1ccccc1)NC(=O)[C@H](CO)NC(=O)[C@H](CC(N)=O)NC(=O)[C@H](Cc1cccnc1)NC(=O)[C@H](CC(N)=O)NC(=O)[C@H](N)Cc1ccc(O)cc1)C(=O)N[C@@H](Cc1ccccc1)C(N)=O [Compound No. 251, D-Tyr-Asn-Pya(3)-Asn-Ser-Phe-AzaGly-Leu-Arg(Me)-Phe-NH2] (H-[dY]N[3Pal]NSF[azaGly]L[Arg(Me)]F-NH2)	87
CC(C)C[C@H](NC(=O)CNC(=O)[C@H](Cc1ccccc1)NC(=O)[C@H](CO)NC(=O)[C@H](CC(N)=O)NC(=O)[C@H](Cc1c[nH]c2ccccc12)NC(=O)[C@@H](N)CC(N)=O)C(=O)N[C@@H](CCCNC(=N)N)C(=O)N[C@@H](Cc1ccccc1)C(N)=O [Compound No. 4, des(1)-MS10, reference compound] (H-NWNSFGLRF-NH2; N-terminus assumed)	260
CNC(N)=NCCC[C@H](NC(=O)[C@H](CC(C)C)NC(=O)NNC(=O)[C@H](Cc1ccccc1)NC(=O)[C@H](CO)NC(=O)[C@H](CC(N)=O)NC(=O)[C@H](CO)NC(=O)[C@H](CC(N)=O)NC(=O)[C@H](N)Cc1ccc(O)cc1)C(=O)N[C@@H](Cc1ccccc1)C(N)=O [Compound No. 191, D-Tyr-Asn-Ser-Asn-Ser-Phe-AzaGly-Leu-Arg(Me)-Phe-NH2] (H-[dY]NSNSF[azaGly]L[Arg(Me)]F-NH2)	300
CC(C)C[C@H](NC(=O)CNC(=O)[C@H](Cc1ccc(O)cc1)NC(=O)[C@H](CO)NC(=O)[C@H](CC(N)=O)NC(=O)[C@H](Cc1c[nH]c2ccccc12)NC(=O)[C@H](CC(N)=O)NC(=O)[C@@H](N)Cc1ccc(O)cc1)C(=O)N[C@@H](CCCNC(=N)N)C(=O)N[C@@H](Cc1ccccc1)C(N)=O [Compound No. 150] (H-YNWNSYGLRF-NH2)	320
CNC(=N)NCCC[C@H](NC(=O)[C@H](CC(C)C)NC(=O)CNC(=O)[C@H](Cc1ccccc1)NC(=O)[C@H](CO)NC(=O)[C@H](CC(N)=O)NC(=O)[C@H](Cc1c[nH]c2ccccc12)NC(=O)OCC1c2ccccc2-c2ccccc21)C(=O)N[C@@H](Cc1ccccc1)C(N)=O [Compound No. 145, Fmoc-Trp-Asn-Ser-Phe-Gly-Leu-Arg(Me)-Phe-NH2] (Fmoc-WNSFGL[Arg(Me)]F-NH2)	120
CNC(=N)NCCC[C@H](NC(=O)[C@H](CC(C)C)NC(=O)NNC(=O)[C@H](Cc1ccccc1)NC(=O)[C@H](CO)NC(=O)[C@H](CC(N)=O)NC(=O)[C@H](Cc1ccccn1)NC(=O)[C@H](CC(N)=O)NC(=O)[C@H](N)Cc1ccc(O)cc1)C(=O)N[C@@H](Cc1ccccc1)C(N)=O [Compound No. 285, D-Tyr-Asn-Pya(2)-Asn-Ser-Phe-AzaGly-Leu-Arg(Me)-Phe-NH2] (H-[dY]N[2Pal]NSF[azaGly]L[Arg(Me)]F-NH2)	40
CNC(=N)NCCC[C@H](NC(=O)[C@H](CC(C)C)NC(=O)CNC(=O)[C@H](Cc1ccccc1)NC(=O)[C@H](CO)NC(=O)[C@H](CC(N)=O)NC(=O)[C@H](CO)NC(=O)[C@H](N)Cc1ccc(O)cc1)C(=O)N[C@@H](Cc1ccccc1)C(N)=O [Compound No. 226] (H-[dY]SNSFGL[Arg(Me)]F-NH2)	100
